Source: the supplement of paper PMC10331698
± gives the standard deviation of the averaged measurements.

Tests used:
Experiment in all cases: level (log10 ratio to DMSO vehicle control); higher = higher biomarker level / cell amount than vehicle control
Conditions in all cases: in DMSO
[1] = compound: C=CC(=O)OCCC(F)(F)C(F)(F)C(F)(F)C(F)(F)F [2-(Perfluorobutyl)ethyl acrylate]
Protocol: (§1)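 BioMAP Diversity Plus panel of 12 human primary cell co-culture systems (3C, 4H, LPS, SAg, BT, BF4T, BE3C, CASM3C, HDF3CGF, KF3CT, MyoF, Mphg). Compounds were added 1 h before stimulation and left for 24 h (MyoF 48 h; BT 72 h for soluble read-outs or 6 d for IgG). Biomarkers were read by ELISA, cytotoxicity by SRB, PBMC viability and proliferation by Alamar Blue. Each well value was divided by the mean of 8 DMSO control wells on the same plate and log10 transformed; duplicate blinded samples were tested at 4 concentrations.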

Perfluorooctanamidine = compound: N=C(N)C(F)(F)C(F)(F)C(F)(F)C(F)(F)C(F)(F)C(F)(F)C(F)(F)F [Perfluorooctanamidine]
Protocol: as §1

[2] = compound: O=C(O)C(F)(F)C(F)(F)C(F)(F)C(F)(F)C(F)(F)C(F)(F)C(F)(F)C(F)(F)C(F)(F)C(F)(F)C(F)(F)C(F)(F)F [Perfluorotridecanoic acid]
Protocol: as §1

Perfluorohexanoic acid = compound: O=C(O)C(F)(F)C(F)(F)C(F)(F)C(F)(F)C(F)(F)F [Perfluorohexanoic acid]
Protocol: as §1

[3] = compound: O=P(O)(O)CCC(F)(F)C(F)(F)C(F)(F)C(F)(F)C(F)(F)C(F)(F)C(F)(F)C(F)(F)F [((Perfluorooctyl)ethyl)phosphonic acid]
Protocol: as §1

[4] = compound: O=S(=O)(O)C(F)(F)C(F)(F)C(F)(F)C(F)(F)C(F)(F)C(F)(F)C(F)(F)C(F)(F)F [Potassium perfluorooctanesulfonate]
Protocol: as §1

| Test System | level (log10) ([1]; 6700 nM) | level (log10) ([1]; 20000 nM) | level (log10) ([1]; 60000 nM) | level (log10) (Perfluorooctanamidine; 6700 nM) | level (log10) (Perfluorooctanamidine; 20000 nM) | level (log10) (Perfluorooctanamidine; 60000 nM) | level (log10) ([2]; 1500 nM) | level (log10) ([2]; 4400 nM) | level (log10) ([2]; 13000 nM) | level (log10) ([2]; 40000 nM) | level (log10) (Perfluorohexanoic acid; 6700 nM) | level (log10) (Perfluorohexanoic acid; 20000 nM) | level (log10) (Perfluorohexanoic acid; 60000 nM) | level (log10) ([3]; 6700 nM) | level (log10) ([3]; 20000 nM) | level (log10) ([3]; 60000 nM) | level (log10) ([4]; 6700 nM) | level (log10) ([4]; 20000 nM) | level (log10) ([4]; 60000 nM) |
| --- | --- | --- | --- | --- | --- | --- | --- | --- | --- | --- | --- | --- | --- | --- | --- | --- | --- | --- | --- |
| 3C:CD54/ICAM-1 | 0.0055 ± 0.0021 | -0.01 ± 0.0042 | -0.01 ± 0.011 | -0.0065 ± 0.0035 | -0.038 ± 0.013 | -0.049 | 0.001 ± 0.016 | -0.0125 ± 0.019 | -0.0155 ± 0.025 | -0.0105 ± 0.0078 | 0.005 ± 0.013 | -0.0045 ± 0.016 | -0.0005 ± 0.019 | -0.012 ± 0.014 | -0.0185 ± 0.012 | -0.021 ± 0.0085 | -0.001 ± 0.0071 | 0.0235 ± 0.005 | 0.046 ± 0.0071 |
| KF3CT:CCL2/MCP-1 | -0.036 ± 0.0099 | -0.0515 ± 0.0035 | -0.028 ± 0.086 | -0.0075 ± 0.0064 | 0.029 ± 0.0099 | 0.092 | 0.003 ± 0.076 | -0.007 ± 0.02 | -0.021 ± 0.031 | 0.018 ± 0.0042 | -0.0155 ± 0.019 | -0.0385 ± 0.018 | 0.001 ± 0.052 | -0.0355 ± 0.0064 | -0.0255 ± 0.0078 | -0.038 ± 0.042 | -0.009 ± 0.011 | -0.012 ± 0.0014 | 0.001 ± 0.05 |
| MyoF:Collagen IV | 0.0195 ± 0.0078 | -0.0085 ± 0.012 | 0.0295 ± 0.035 | 0.0195 ± 0.03 | 0.044 ± 0.018 | 0.117 | -0.0095 ± 0.043 | 0.002 ± 0.018 | 0.004 ± 0.04 | 0.064 ± 0.013 | 0.0245 ± 0.0064 | 0.0165 ± 0.0064 | 0.0345 ± 0.037 | -0.0005 ± 0.013 | 0.012 ± 0.025 | -0.01 ± 0.057 | 0.024 ± 0.017 | 0.0125 ± 0.022 | 0.0175 ± 0.05 |
| CASM3C:CD142/Tissue Factor | -0.027 ± 0.011 | -0.0455 ± 0.0092 | -0.0585 ± 0.0092 | -0.022 ± 0.024 | -0.033 ± 0.0014 | 0.042 | -0.004 ± 0.064 | 0.002 ± 0.024 | -0.0025 ± 0.018 | -0.012 ± 0.034 | -0.0125 ± 0.013 | -0.019 ± 0.0042 | -0.0145 ± 0.005 | -0.0235 ± 0.019 | -0.006 ± 0.0099 | 0.046 ± 0.079 | -0.016 ± 0.041 | -0.014 ± 0.023 | -0.0265 ± 0.029 |
| CASM3C:CD141/Thrombomodulin | 0.006 ± 0.018 | -0.0125 ± 0.0064 | 0.052 ± 0.0014 | -0.008 ± 0.016 | -0.0205 ± 0.005 | 0.043 | 0.0215 ± 0.11 | -0.0185 ± 0.084 | 0.03 ± 0.062 | 0.193 ± 0.015 | 0.021 ± 0.021 | -0.0105 ± 0.021 | 0.0005 ± 0.044 | -0.01 ± 0.0071 | -0.014 ± 0.0042 | 0.0245 ± 0.015 | 0.0235 ± 0.0021 | -0.004 ± 0.018 | -0.021 ± 0.031 |
| lMphg:SRB | 0.0085 ± 0.0078 | -0.0095 ± 0.0064 | -0.0155 ± 0.012 | -0.006 ± 0.016 | 0.004 ± 0.016 | 0.001 | -0.009 ± 0.0085 | -0.0135 ± 0.0035 | 0.002 ± 0.0057 | -0.0085 ± 0.00071 | -0.019 ± 0.0085 | -0.0175 ± 0.0064 | -0.006 ± 0.0085 | 0 ± 0.0071 | -0.0105 ± 0.0078 | -0.044 ± 0.0085 | -0.0065 ± 0.015 | -0.01 ± 0.0071 | -0.015 ± 0.011 |
| KF3CT:CXCL8/IL-8 | -0.0095 ± 0.021 | -0.003 ± 0.0014 | -0.0105 ± 0.018 | 0.0135 ± 0.021 | 0.0305 ± 0.018 | 0.043 | -0.0035 ± 0.04 | -0.009 ± 0.037 | -0.006 ± 0.033 | -0.0315 ± 0.06 | -0.005 ± 0.014 | 0.009 ± 0.04 | 0.031 ± 0.013 | 0.022 ± 0.0014 | 0.0245 ± 0.0078 | 0.032 ± 0.0028 | -0.006 ± 0.017 | -0.0045 ± 0.0092 | -0.0185 ± 0.015 |
| lMphg:CCL3/MIP-1alpha | -0.0105 ± 0.0064 | -0.0115 ± 0.029 | 0.021 ± 0.013 | -0.029 ± 0.03 | 0.0015 ± 0.035 | 0.055 | 0.0065 ± 0.023 | -0.0135 ± 0.013 | 0.004 ± 0.021 | 0.0345 ± 0.032 | 0.006 | -0.009 ± 0.011 | 0.0025 ± 0.011 | -0.0425 ± 0.026 | -0.0475 ± 0.0021 | -0.039 ± 0.0085 | -0.0105 ± 0.0035 | -0.0255 ± 0.0092 | -0.016 ± 0.02 |
| HDF3CGF:TIMP-2 | -0.0725 ± 0.057 | -0.0805 ± 0.047 | -0.0995 ± 0.035 | -0.008 ± 0.027 | -0.012 ± 0.031 | -0.018 | 0.0455 ± 0.043 | 0.0415 ± 0.084 | 0.102 ± 0.019 | 0.0095 ± 0.013 | 0.033 ± 0.0014 | 0.021 ± 0.017 | 0.025 ± 0.037 | 0.0645 ± 0.013 | 0.0485 ± 0.0021 | -0.029 ± 0.018 | -0.055 ± 0.03 | -0.108 ± 0.019 | -0.137 ± 0.038 |
| CASM3C:CXCL9/MIG | -0.0005 ± 0.012 | -0.025 ± 0.0071 | -0.121 ± 0.014 | -0.005 ± 0.013 | -0.017 ± 0.024 | 0.069 | 0.013 ± 0.044 | -0.006 ± 0.017 | -0.054 ± 0.018 | -0.0405 ± 0.054 | 0.008 ± 0.0057 | 0.001 ± 0.0042 | 0.012 ± 0.021 | 0.0115 ± 0.011 | 0.019 ± 0.028 | 0.041 ± 0.03 | 0.015 ± 0.0071 | 0.012 ± 0.016 | 0.09 ± 0.027 |
